From patent US12365696B2, “Small-molecule focal adhesion kinase (FAK) inhibitors” (DANA-FARBER CANCER INSTITUTE, INC., priority 2019, dated 2025)

Legend:
Experiment in all cases: KINOMEscan
Type in all cases: binding
BMPR2 = BMPR2 (Homo sapiens (Human), UniProt Q13873); settings: BMPR2, 10000 nM; read-out: Percent Control
BRAF(V600E) = BRAF(V600E) (Homo sapiens (Human), UniProt P15056, V600E); settings: 10000 nM, read-out: Percent Control
BTK = BTK (Homo sapiens (Human), UniProt Q06187); settings: 10000 nM, read-out: Percent Control
Sequence of BTK (Q06187 whole entry): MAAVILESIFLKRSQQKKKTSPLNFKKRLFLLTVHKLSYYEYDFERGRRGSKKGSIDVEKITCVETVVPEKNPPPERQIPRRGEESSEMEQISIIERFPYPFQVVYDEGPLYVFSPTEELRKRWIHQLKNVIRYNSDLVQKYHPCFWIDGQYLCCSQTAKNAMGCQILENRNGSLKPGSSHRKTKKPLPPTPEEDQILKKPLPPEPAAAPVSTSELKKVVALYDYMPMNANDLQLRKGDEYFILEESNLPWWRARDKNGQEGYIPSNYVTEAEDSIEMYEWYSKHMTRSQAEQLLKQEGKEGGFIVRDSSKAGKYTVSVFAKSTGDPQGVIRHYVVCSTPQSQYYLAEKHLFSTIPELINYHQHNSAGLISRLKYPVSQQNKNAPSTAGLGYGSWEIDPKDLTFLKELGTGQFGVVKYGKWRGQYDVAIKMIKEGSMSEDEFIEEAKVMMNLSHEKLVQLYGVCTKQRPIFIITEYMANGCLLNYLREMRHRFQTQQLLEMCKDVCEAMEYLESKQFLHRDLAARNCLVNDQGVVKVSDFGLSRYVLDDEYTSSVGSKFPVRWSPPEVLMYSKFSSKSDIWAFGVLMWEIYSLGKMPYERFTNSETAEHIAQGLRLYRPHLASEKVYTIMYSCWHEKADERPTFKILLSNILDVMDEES

CHEK1 = CHEK1 (Homo sapiens (Human), UniProt O14757); settings: CHEK1, 10000 nM; read-out: Percent Control
EPHA7 = EPHA7 (Homo sapiens (Human), UniProt Q15375); settings: EPHA7, 10000 nM; read-out: Percent Control
FER = FER (Homo sapiens (Human), UniProt P16591); settings: 10000 nM, read-out: Percent Control
FGFR1 = FGFR1 (Homo sapiens (Human), UniProt P11362); settings: FGFR1, 10000 nM; read-out: Percent Control
GAK = GAK (Homo sapiens (Human), UniProt O14976); settings: 10000 nM, read-out: Percent Control
HIPK4 = HIPK4 (Homo sapiens (Human), UniProt Q8NE63); settings: HIPK4, 10000 nM; read-out: Percent Control
LATS2 = LATS2 (Homo sapiens (Human), UniProt Q9NRM7); settings: LATS2, 10000 nM; read-out: Percent Control
MARK3 = MARK3 (Homo sapiens (Human), UniProt P27448); settings: MARK3, 10000 nM; read-out: Percent Control
MYLK = MYLK (Homo sapiens (Human), UniProt Q15746); settings: 10000 nM, read-out: Percent Control
Sequence of MYLK (Q15746 whole entry): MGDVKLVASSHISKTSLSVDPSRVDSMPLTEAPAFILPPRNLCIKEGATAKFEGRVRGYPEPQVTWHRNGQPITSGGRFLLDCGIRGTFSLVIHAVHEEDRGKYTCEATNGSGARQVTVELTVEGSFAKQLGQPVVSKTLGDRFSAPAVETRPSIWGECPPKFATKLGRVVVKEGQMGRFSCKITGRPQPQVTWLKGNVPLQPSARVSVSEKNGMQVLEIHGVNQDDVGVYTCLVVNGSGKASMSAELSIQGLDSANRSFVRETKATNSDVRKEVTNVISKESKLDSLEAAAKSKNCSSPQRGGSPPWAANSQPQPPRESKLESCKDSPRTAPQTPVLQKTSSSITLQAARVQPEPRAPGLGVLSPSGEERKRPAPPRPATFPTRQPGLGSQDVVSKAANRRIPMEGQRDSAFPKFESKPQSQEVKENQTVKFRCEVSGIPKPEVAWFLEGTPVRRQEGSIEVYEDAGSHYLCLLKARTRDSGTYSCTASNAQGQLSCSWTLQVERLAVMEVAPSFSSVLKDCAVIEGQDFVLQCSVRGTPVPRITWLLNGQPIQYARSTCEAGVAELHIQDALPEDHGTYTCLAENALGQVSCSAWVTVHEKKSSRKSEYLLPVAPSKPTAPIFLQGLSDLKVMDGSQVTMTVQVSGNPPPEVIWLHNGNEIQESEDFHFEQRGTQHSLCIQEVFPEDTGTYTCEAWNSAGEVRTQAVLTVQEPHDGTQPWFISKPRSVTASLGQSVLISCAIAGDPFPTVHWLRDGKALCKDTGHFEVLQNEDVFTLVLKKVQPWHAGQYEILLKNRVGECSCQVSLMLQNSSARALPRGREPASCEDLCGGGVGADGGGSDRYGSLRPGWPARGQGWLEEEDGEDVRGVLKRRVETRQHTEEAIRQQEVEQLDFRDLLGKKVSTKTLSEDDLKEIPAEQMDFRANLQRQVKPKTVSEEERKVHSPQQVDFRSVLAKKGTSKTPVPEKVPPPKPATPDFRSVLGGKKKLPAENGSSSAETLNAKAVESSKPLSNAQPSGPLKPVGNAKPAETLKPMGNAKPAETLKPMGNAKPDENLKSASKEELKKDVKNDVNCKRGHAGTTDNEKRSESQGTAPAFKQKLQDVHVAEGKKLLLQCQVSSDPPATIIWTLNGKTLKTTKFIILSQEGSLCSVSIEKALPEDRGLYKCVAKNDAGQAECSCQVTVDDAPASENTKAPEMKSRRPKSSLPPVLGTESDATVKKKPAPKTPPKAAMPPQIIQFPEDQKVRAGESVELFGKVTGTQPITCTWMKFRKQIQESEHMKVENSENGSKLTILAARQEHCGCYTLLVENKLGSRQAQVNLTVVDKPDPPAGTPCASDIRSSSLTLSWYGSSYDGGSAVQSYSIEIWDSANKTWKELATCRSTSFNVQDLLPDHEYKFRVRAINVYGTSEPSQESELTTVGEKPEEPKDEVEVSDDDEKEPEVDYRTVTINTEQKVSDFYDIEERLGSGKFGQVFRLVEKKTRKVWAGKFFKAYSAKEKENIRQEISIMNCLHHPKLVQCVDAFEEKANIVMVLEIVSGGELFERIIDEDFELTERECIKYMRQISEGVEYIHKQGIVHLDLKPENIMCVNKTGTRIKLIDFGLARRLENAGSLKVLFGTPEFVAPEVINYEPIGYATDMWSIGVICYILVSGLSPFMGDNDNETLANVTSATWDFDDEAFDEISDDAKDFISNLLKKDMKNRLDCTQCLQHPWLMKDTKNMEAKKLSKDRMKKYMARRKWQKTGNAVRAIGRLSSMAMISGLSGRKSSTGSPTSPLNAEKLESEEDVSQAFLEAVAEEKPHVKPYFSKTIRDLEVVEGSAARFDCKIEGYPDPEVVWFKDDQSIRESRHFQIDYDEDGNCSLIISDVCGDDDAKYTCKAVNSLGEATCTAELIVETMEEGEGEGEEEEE

NEK7 = NEK7 (Homo sapiens (Human), UniProt Q8TDX7); settings: NEK7, 10000 nM; read-out: Percent Control
NIM1 = NIM1 (Homo sapiens (Human), UniProt Q8IY84); settings: NIM1, 10000 nM; read-out: Percent Control
PCTK1 = PCTK1 (Homo sapiens (Human), UniProt Q00536); settings: PCTK1, 10000 nM; read-out: Percent Control
PHKG2 = PHKG2 (Homo sapiens (Human), UniProt P15735); settings: PHKG2, 10000 nM; read-out: Percent Control
PIK3CA(E542K) = PIK3CA(E542K) (Homo sapiens (Human), UniProt P42336, E542K); settings: 10000 nM, read-out: Percent Control
PIK3CA(E545K) = PIK3CA(E545K) (Homo sapiens (Human), UniProt P42336, E545K); settings: 10000 nM, read-out: Percent Control
PKAC-alpha = PKAC-alpha (Homo sapiens (Human), UniProt P17612); settings: 10000 nM, read-out: Percent Control
PKMYT1 = PKMYT1 (Homo sapiens (Human), UniProt Q99640); settings: PKMYT1, 10000 nM; read-out: Percent Control
PRKCI = PRKCI (Homo sapiens (Human), UniProt P41743); settings: 10000 nM, read-out: Percent Control
Sequence of PRKCI (P41743 whole entry): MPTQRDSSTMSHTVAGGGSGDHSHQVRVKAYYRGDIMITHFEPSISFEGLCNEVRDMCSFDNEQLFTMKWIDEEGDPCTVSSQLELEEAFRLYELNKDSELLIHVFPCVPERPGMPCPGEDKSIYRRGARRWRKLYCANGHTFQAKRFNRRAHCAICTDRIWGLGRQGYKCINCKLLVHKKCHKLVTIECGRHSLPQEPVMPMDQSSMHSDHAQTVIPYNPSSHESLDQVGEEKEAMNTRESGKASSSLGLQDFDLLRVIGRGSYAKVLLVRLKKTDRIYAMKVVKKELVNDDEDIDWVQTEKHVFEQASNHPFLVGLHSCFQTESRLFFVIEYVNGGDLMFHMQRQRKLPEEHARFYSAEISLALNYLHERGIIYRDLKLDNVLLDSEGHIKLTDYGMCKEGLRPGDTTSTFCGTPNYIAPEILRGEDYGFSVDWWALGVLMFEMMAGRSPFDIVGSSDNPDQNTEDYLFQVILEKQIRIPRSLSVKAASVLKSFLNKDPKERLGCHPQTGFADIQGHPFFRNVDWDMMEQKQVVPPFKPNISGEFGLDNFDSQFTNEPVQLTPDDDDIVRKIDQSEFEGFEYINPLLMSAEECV

PRKG1 = PRKG1 (Homo sapiens (Human), UniProt Q13976); settings: PRKG1, 10000 nM; read-out: Percent Control
RET = RET (Homo sapiens (Human), UniProt P07949); settings: 10000 nM, read-out: Percent Control
RIPK2 = RIPK2 (Homo sapiens (Human), UniProt O43353); settings: RIPK2, 10000 nM; read-out: Percent Control
[1] = target: RSK2(Kin.Dom.2-C-terminal) (Homo sapiens (Human), UniProt P51812); settings: 10000 nM, read-out: Percent Control
VPS34 = VPS34 (Homo sapiens (Human), UniProt Q8NEB9); settings: VPS34, 10000 nM; read-out: Percent Control
Sequence of VPS34 (Q8NEB9 whole entry): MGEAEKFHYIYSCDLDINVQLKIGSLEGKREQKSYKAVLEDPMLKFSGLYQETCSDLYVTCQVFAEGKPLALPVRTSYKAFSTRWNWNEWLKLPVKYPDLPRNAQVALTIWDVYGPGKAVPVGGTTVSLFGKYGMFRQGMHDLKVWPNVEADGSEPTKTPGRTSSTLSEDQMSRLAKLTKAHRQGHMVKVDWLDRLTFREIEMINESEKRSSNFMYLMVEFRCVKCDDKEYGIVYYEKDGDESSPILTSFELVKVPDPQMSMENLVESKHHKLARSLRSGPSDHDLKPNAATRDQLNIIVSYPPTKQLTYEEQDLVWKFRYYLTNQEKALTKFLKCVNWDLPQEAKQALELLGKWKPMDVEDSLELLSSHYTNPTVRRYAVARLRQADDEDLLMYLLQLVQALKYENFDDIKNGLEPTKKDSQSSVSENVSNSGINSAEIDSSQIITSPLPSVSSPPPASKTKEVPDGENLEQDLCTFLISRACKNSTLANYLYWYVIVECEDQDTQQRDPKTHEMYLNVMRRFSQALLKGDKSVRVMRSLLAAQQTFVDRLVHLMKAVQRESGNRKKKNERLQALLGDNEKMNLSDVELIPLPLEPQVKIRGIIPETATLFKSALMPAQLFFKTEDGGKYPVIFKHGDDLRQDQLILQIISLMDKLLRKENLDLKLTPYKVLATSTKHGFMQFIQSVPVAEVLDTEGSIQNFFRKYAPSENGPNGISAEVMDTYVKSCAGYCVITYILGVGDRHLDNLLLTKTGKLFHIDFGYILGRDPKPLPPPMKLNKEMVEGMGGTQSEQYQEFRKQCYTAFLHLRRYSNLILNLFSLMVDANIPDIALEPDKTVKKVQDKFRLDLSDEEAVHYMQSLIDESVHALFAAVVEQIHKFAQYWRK

ZAK = ZAK (Homo sapiens (Human), UniProt Q9NYL2); settings: 10000 nM, read-out: Percent Control
Sequence of ZAK (Q9NYL2 whole entry): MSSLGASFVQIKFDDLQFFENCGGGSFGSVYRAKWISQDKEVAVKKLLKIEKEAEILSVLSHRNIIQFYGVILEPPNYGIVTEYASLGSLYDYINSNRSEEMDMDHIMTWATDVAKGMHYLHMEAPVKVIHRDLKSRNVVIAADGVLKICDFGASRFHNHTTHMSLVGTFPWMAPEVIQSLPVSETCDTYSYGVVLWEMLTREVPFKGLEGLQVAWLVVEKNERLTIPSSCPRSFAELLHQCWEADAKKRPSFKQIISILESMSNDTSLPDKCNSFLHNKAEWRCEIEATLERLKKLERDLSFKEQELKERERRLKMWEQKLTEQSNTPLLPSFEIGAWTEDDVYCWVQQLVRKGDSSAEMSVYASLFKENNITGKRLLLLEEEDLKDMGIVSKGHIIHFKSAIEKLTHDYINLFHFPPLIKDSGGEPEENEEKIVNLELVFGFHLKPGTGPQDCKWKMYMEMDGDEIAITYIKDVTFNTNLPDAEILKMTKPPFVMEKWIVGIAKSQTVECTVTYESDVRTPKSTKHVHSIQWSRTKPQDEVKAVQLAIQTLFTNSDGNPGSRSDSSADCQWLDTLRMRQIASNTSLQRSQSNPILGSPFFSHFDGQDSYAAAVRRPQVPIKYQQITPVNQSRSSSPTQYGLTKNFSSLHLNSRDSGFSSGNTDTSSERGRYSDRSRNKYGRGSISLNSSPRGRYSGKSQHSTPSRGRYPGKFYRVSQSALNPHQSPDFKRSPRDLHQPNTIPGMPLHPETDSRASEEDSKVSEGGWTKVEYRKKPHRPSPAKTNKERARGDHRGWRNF

COc1cc(N2CCC(N3CCN(C)CC3)CC2)ccc1Nc1ncc2c(n1)N(C)c1sc(C)nc1C(=O)N2 [Compound 3, 6-((2-methoxy-4-(4-(4-methylpiperazin-1-yl)piperidin-1-yl)phenyl)amino)-2,4-dimethyl-4,9-dihydro-10H-pyrimido[5,4-b]thiazolo[5,4-e][1,4]diazepin-10-one]
remaining binding at 10 µM (BMPR2): 100%
remaining binding at 10 µM (BRAF(V600E)): 100%
remaining binding at 10 µM (BTK): 100%
remaining binding at 10 µM (CHEK1): 79%
remaining binding at 10 µM (EPHA7): 71%
remaining binding at 10 µM (FER): 74%
remaining binding at 10 µM (FGFR1): 75%
remaining binding at 10 µM (GAK): 4.2%
remaining binding at 10 µM (HIPK4): 82%
remaining binding at 10 µM (LATS2): 100%
remaining binding at 10 µM (MARK3): 96%
remaining binding at 10 µM (MYLK): 53%
remaining binding at 10 µM (NEK7): 63%
remaining binding at 10 µM (NIM1): 100%
remaining binding at 10 µM (PCTK1): 100%
remaining binding at 10 µM (PHKG2): 69%
remaining binding at 10 µM (PIK3CA(E542K)): 100%
remaining binding at 10 µM (PIK3CA(E545K)): 90%
remaining binding at 10 µM (PKAC-alpha): 72%
remaining binding at 10 µM (PKMYT1): 90%
remaining binding at 10 µM (PRKCI): 73%
remaining binding at 10 µM (PRKG1): 93%
remaining binding at 10 µM (RET): 99%
remaining binding at 10 µM (RIPK2): 88%
remaining binding at 10 µM [1]: 100%
remaining binding at 10 µM (VPS34): 100%
remaining binding at 10 µM (ZAK): 92%

COc1cc(N2CCC(N3CCN(C)CC3)CC2)ccc1Nc1ncc2c(n1)N(C)c1sc(C)nc1C(=O)N2C [Compound 5, 6-((2-methoxy-4-(4-(4-methylpiperazin-1-yl)piperidin-1-yl)phenyl)amino)-2,4,9-trimethyl-4,9-dihydro-10H-pyrimido[5,4-b]thiazolo[5,4-e][1,4]diazepin-10-one]
remaining binding at 10 µM (BMPR2): 100%
remaining binding at 10 µM (BRAF(V600E)): 97%
remaining binding at 10 µM (BTK): 100%
remaining binding at 10 µM (CHEK1): 59%
remaining binding at 10 µM (EPHA7): 97%
remaining binding at 10 µM (FER): 57%
remaining binding at 10 µM (FGFR1): 90%
remaining binding at 10 µM (GAK): 31%
remaining binding at 10 µM (HIPK4): 100%
remaining binding at 10 µM (LATS2): 98%
remaining binding at 10 µM (MARK3): 81%
remaining binding at 10 µM (MYLK): 36%
remaining binding at 10 µM (NEK7): 100%
remaining binding at 10 µM (NIM1): 100%
remaining binding at 10 µM (PCTK1): 100%
remaining binding at 10 µM (PHKG2): 38%
remaining binding at 10 µM (PIK3CA(E542K)): 93%
remaining binding at 10 µM (PIK3CA(E545K)): 100%
remaining binding at 10 µM (PKAC-alpha): 100%
remaining binding at 10 µM (PKMYT1): 95%
remaining binding at 10 µM (PRKCI): 97%
remaining binding at 10 µM (PRKG1): 100%
remaining binding at 10 µM (RET): 100%
remaining binding at 10 µM (RIPK2): 95%
remaining binding at 10 µM [1]: 99%
remaining binding at 10 µM (VPS34): 89%
remaining binding at 10 µM (ZAK): 100%
